Where two headings read alike, the source gives them in different places.
Assays:
[1] = parameters: Cmax (prednisolone) / AUC (prednisolone): unit not given beside the values; conditions: cited from earlier work
[2] = human, in vivo, po
Experimental: Four phase I studies have been completed. In the first of these, an ethyl cellulose to amylose ratio of 5:1 was used with a 10% weight gain. The second and third studies, investigated the effect of a thicker coat (20% weight gain) at a 4:1 ethylcellulose to amylose ratio. All other features of the comparison formulation were the same.
(§1) Capsules containing coated pellets of prednisolone sodium metasulphobenzoate, equivalent to 60 mg prednisolone, were administered to seven healthy, fasted volunteers. Progress of the dose through the gastrointestinal tract was followed over 24 hours by gamma-scintigraphy after the co-administration of ethylcellulose coated ^111indium labelled non-pareils. Plasma levels of prednisolone were determined at various time points up to 48 hours after administration. Excreted drug pellets were harvested over five days and residual drug levels determined.
(§2) The trial comprised a combined gamma scintigraphic and pharmacokinetic study with excreted pellet analysis to the same design as the first Phase I study (above) following administration of the prednisolone sodium metasulphobenzoate ester at a dose of 94.2 mg, equivalent to 60 mg of prednisolone. In this second study, the thickness of the coating of the pellets was increased and the proportion of amylose was increased in the coat.
(§3) The trial comprised a combined gamma scintigraphic and pharmacokinetic study with excreted pellet analysis to the same design as the first Phase I study (above) following administration of prednisolone sodium metasulphobenzoate ester at a dose of 94.2 mg, equivalent to 60 mg prednisolone. In this third study, administering the coated prednisolone pellets to volunteers in the fed and fasted state was examined.
The pellets were produced as described in Example 2.
This trial used a higher dose of prednisolone sodium metasulphobenzoate, equivalent to 100 mg of prednisolone.

[3] = parameters: unit not given beside the values; conditions: in vivo, po, 40 mg; cited from earlier work
[4] = for drug content of the formulation released from the pellets / prednisolone sodium metasulphobenzoate retained in the excreted pellets, mean: 3rd Phase I
Experimental: as §1, §2, §3

[5] = McIntyre et al 1985, 20 mg, rectal

With `C[C@]12C=CC(=O)C=C1CC[C@@H]1[C@@H]2[C@@H](O)C[C@@]2(C)[C@H]1CC[C@]2(O)C(=O)COP(=O)(O)O` [Prednisolone-21-phosphate] as the compound, how does the “AUC (prednisolone)” value [1, 5] read?
Its value is 599 ± 310.

What about the “Cmax (prednisolone)” value [1, 5] of the same compound?
Its value is 148 ± 75.

What does the source list for `C[C@]12C=CC(=O)C=C1CC[C@@H]1[C@@H]2[C@@H](O)C[C@@]2(C)[C@H]1CC[C@]2(O)C(=O)COC(=O)c1cccc(S(=O)(=O)[O-])c1.[Na+]` [Prednisolone metasulphobenzoate, prednisolone sodium metasulphobenzoate]?
AUC (prednisolone) ([2]; 60 mg): 1441 ± 541; Cmax (prednisolone) ([2]; 60 mg): 168 ± 56; AUC ([2]; 100 mg): 152 ng·mL·h; Cmax ([2]; 100 mg): 18.9 ng/mL; AUC (prednisolone) [3]: 2189 ± 475; Cmax (prednisolone) [3]: 242 ± 58; AUC ([1]; in vivo, 60 mg): 632 ± 509 ng·mL·h; AUC (prednisolone) ([1]; in vivo, 60 mg): 632 ± 509; Cmax ([1]; in vivo, 60 mg): 147 ± 79 ng/mL; Cmax (prednisolone) ([1]; in vivo, 60 mg): 147 ± 79; amount of prednisolone recovered from pellets harvested from the faeces ([4]; 1st Phase I, 60 mg oral, average of all subjects): 2.5 ± 1.12 mg; prednisolone recovered from excreted pellets, % of the administered dose ([4]; 1st Phase I, all cases): less than 5%; drug excreted in the pellets, % of the administered dose ([4]; 2nd Phase I): less than 2%; arrival of the drug pellets at the ileo-caecal junction ([4]; 2nd Phase I, amylose:ethylcellulose 1:4, 20% weight gain): 5.9 ± 2.0 h; mean quantity of drug excreted in the pellets, determined as prednisolone sodium metasulphobenzoate ([4]; 2nd Phase I, dose 94.2 mg ester): 1.7 mg; drug content of the formulation released from the pellets ([4]; fasted): over 90%; prednisolone sodium metasulphobenzoate retained in the excreted pellets, mean ([4]; fasted, dose 94.2 mg ester): 6.1 ± 1.0 mg; drug content of the formulation released from the pellets ([4]; fed): over 90%; prednisolone sodium metasulphobenzoate retained in the excreted pellets, mean ([4]; fed, dose 94.2 mg ester): 3.1 ± 1.2 mg

— patent publication US20050220861A1, “Colonic release compostion” (priority 2002, published 2005)
